Measured values: paper PMC9800617, “Pharmacokinetics/pharmacodynamics of polymyxin B in patients with bloodstream infection caused by carbapenem-resistant Klebsiella pneumoniae” (Frontiers in Pharmacology, 2022)
Where two headings read alike, the source gives them in different places. Bridge positions count the residues as written; N and C are the ends. Square brackets hold non-standard residues; d marks the D form. Peptide text beside a SMILES is read from it. * marks the point of attachment. X1 = CC[C@H](C)CCCCC(=O)*; Dab = NCC[C@H](N)C(=O)O

Assays:
[1] = healthy Chinese subjects, ref Liu et al., 2021, cited from earlier work
Source text: Neurotoxicity is another major dose-limiting factor for the polymyxins, although it often goes unreported given many patients receiving polymyxins are mechanically ventilated which makes assessment difficult. Polymyxin-induced neurotoxicity is very likely dose-dependent and is characterized by symptoms such as dizziness, vertigo, visual disturbances, confusion, hallucinations, seizures, ataxia, facial and peripheral parenthesis, and pruritus ([Falagas and Kasiakou, 2006]; [Weinstein et al., 2009]; [Wahby et al., 2010]; [Honore et al., 2013]). While neurologic side effects such as parenthesis h ...

[2] = cited from earlier work
Procedure: Monte Carlo simulations were conducted for the probability of target attainment (PTA) analysis to guide the selection of optimal dosage regimens. Different dosage regimens were simulated by the PPK model and AUCss,24h were calculated. […] The maximal reductions in colony f ... || FIGURE 4 Probability of target attainment for different dosage regimens of polymyxin B against common carbapenem-resistant organisms according to PK/PD simulations. (A) Loading dose for three bacterial species. […] Or gani s m Dose Dosing MIC (mg/L) (m g/ k g) frequen c y 0.25 0.5 1 2 4 8 2 Loading 100.0 100.0 99.6 40.5 0 0 2.5 dose 100.0 100.0 100.0 71.0 2.0 0 Klebsiella 0.5 100.0 99.7 40.5 0.2 0 0 pneum oniae 0.75 Maintenance 100.0 100.0 90.6 11.0 0 0 1.0 dose, q12h 10 ...

[3] = Plasma pharmacokinetics of polymyxin B in CRKP BSI patients (LC-MS/MS; non-compartmental and compartmental); format: in vivo, human; settings: mean ± SD
Procedure: Polymyxin B Sulphate for Injection (Lot No. A-1411137) containing 72.0% polymyxin B1 and B1-Ile and 12.1% polymyxin B2 was provided by SPH No. 1 Biochemical & Pharmaceutical Co., Ltd. (Shanghai, China). Prior to administration, polymyxin B was dissolved in 50–100 ml normal saline as per the manufacturer’s instructions then administered intravenously at a dose of 1.25 mg/kg every 12 h (2-h infusion) with an initial loading dose of 2.5 mg/kg (3-h infusion). Treatment lasted for 7–14 days as per treatment guidelines ([Rhodes et al., 2017]). Adverse events were closely monitored and recorded for each patient.
Blood samples (4 mL) for pharmacokinetic analysis were collected in tubes with EDTA-K2 as the anticoagulant immediately before and after administration of the polymyxin B loading dose (the first dose) and immediately before administration of the second dose. Subsequent blood samples were collected during the second visit (5th, 6th or 7th dosing) consisting of a sample immediately prior to the infusion and at .5, 1, 2, 3, 4, 5, 6, 7, 8, 10, and 12 h following the commencement of the infusion. If possible, a final blood sample was collected 24 h after the commencement of the last infusion. All blood samples were centrifuged (4°C, 2,000 g) and plasma collected and stored at −80°C until analysis.
The concentrations of polymyxin B1 (including B1-Ile) and polymyxin B2 were determined using a validated liquid chromatography-tandem mass spectrometry (LC-MS/MS) method ([Liu et al., 2020]). […] The calibration range was .050–5.00 mg/L for polymyxin B1 and .011–.549 mg/L for polymyxin B2. The concentration of polymyxin B was calculated by the sum of concentrations of polymyxin B1 and B2 using molar terms and their molecular weights (polymyxin B1 is 1203.48 g/mol, polymyxin B2 is 1189.45 g/mol).
The PK parameters of polymyxin B were calculated using Phoenix WinNonlin 8.0 (Certara^TM, USA) with non-compartmental and compartmental methods. PPK analysis was conducted using NONMEM 7.4 (Icon Development Solutions, Ellicott City, MD) with G77 FORTRAN complier and FOCEI algorithm. Results from BSI patients in the present study and healthy subjects in a previous study were combined ([Liu et al., 2021]). One- and two-compartment models were tested during development of the base model. Models were developed and evaluated based on an objective function value and goodness-of-fit plots. The covariates were selected using a forward inclusion and backward elimination strategy. The screened covariates were sex, age, body weight, height, body mass index (BMI), creatinine clearance (CLcr), albumin, hemoglobin, total protein, total bilirubin, serum alanine aminotransferase (ALT), serum aspartate aminotransferase (AST), serum creatinine, Sequential Organ Failure Assessment (SOFA) score, and disease state (BSI patients were defined as 1 and healthy subjects were defined as 2). Covariates were included in the model based on the criteria of OFV requiring a decrease of 3.84 (p < .05) in the forward inclusion and an increase of greater of 10.83 (p < .001) in the backward elimination. Bootstrap sampling and visual predictive checks (VPCs) were utilized to validate the robustness of the final model.

[4] = human, steady state, 1.25 mg/kg/12 h (2-h iv infusion), plasma, LC-MS/MS, non-compartmental

Compound: CC[C@H](C)CCCCC(=O)N[C@@H](CCN)C(=O)N[C@H](C(=O)N[C@@H](CCN)C(=O)N[C@H]1CCNC(=O)[C@H]([C@@H](C)O)NC(=O)[C@H](CCN)NC(=O)[C@H](CCN)NC(=O)[C@H](CC(C)C)NC(=O)[C@@H](Cc2ccccc2)NC(=O)[C@H](CCN)NC1=O)[C@@H](C)O [polymyxin B] (X1-[Dab]T[Dab][Dab][Dab][dF]L[Dab][Dab]T; lactam 4-C)
- subjects with perioral paraesthesia, dizziness, and numbness of extremities ([1]; single dose 0.75 mg/kg, 1-h infusion, 7 of 10): 70%
- subjects with perioral paraesthesia, dizziness, and numbness of extremities ([1]; single dose 1.5 mg/kg, 1.5-h infusion): all subjects
- unbound fraction in plasma ([2]; as used in PK/PD simulations, given as fraction): 0.42
- unbound fraction (f) in human plasma ([2]; human plasma, ref Sandri et al., 2013): 42%
- Cmax ([3]; human, 2.5 mg/kg loading dose, 3-h iv infusion, plasma, LC-MS/MS, read-out: Cmax following the loading dose): 5530 ± 1800 ng/mL
- level at 12 h ([3]; human, 2.5 mg/kg loading dose, 3-h iv infusion, plasma, LC-MS/MS, read-out: Cmin (12 h) following the loading dose): 1620 ± 410 ng/mL
- clearance ([3]; human, plasma, iv, two-compartmental analysis, read-out: CL, clearance from the central compartment (converted)): 0.433 mL/min/kg
- Vd [3, 4]: 0.49 ± 0.142 L/kg
- half-life [3, 4]: 12.5 ± 3.11 h
- AUC(0-t) ([3]; human, steady state, 1.25 mg/kg/12 h (2-h iv infusion), plasma, LC-MS/MS, non-compartmental, read-out: AUC12h): 39800 ± 12500 ng·h/mL
- clearance ([3]; human, steady state, 1.25 mg/kg/12 h (2-h iv infusion), plasma, LC-MS/MS, non-compartmental, read-out: CL (converted)): 0.467 mL/min/kg
- Cmax ([3]; human, steady state, 1.25 mg/kg/12 h (2-h iv infusion), plasma, LC-MS/MS, non-compartmental, read-out: Cmax): 5420 ± 1690 ng/mL
- Cavg (Css,avg) ([3]; steady state, 1.25 mg/kg/12 h (2-h iv infusion), plasma, LC-MS/MS, non-compartmental): 3350 ± 1060 ng/mL
- K10, elimination rate constant ([3]; two-compartmental analysis): 0.165 ± 0.065 h⁻¹
- K12, rate constant central to peripheral compartment ([3]; two-compartmental analysis): 0.702 ± 0.395 h⁻¹
- K21, rate constant peripheral to central compartment ([3]; two-compartmental analysis): 0.214 ± 0.137 h⁻¹
- V1, central volume of distribution ([3]; two-compartmental analysis): 0.163 ± 0.036 L/kg
- V2, peripheral volume of distribution ([3]; two-compartmental analysis): 0.565 ± 0.243 L/kg
